{"source": "patent US12552854B2", "about": "“Peptides that block presentation of antigenic islet peptides by HLA-DQ8 and methods for treating type-1 diabetes” (Icahn School of Medicine at Mount Sinai, priority 2019, dated 2026)", "key": {"[1]": {"tested_on": "PBMCs isolated from DQ8 positive T1D patients", "assay": "CFSE T-cell proliferation in PBMCs from DQ8 positive recent-onset T1D patients", "assay_type": "cell-based, human", "conditions": "all peptides at 50 μg/ml", "from_the_text": "(§1) Subjects with a diagnosis of T1D within the previous 2 years were recruited from the Pediatric Endocrine clinic at Children Hospital at Montefiore and from the adult Endocrine clinics at Montefiore and Mount Sinai Hospitals (New York). Peripheral blood mononuclear cells (PBMCs) were isolated from heparinized blood using Ficoll-Paque (GE Healthcare); freshly isolated PBMCs were used for T-cell activation studies and for genotyping. DNA purified from the blood of the patients was typed for HLA-DQ as previously described (32). PBMCs isolated from DQ8 positive patients were seeded in 96 well plates with 200 μl medium (RPMI, 10% FBS). […] The stimulated PBMCs were assessed for cytokine production and T-cell proliferation as described above for mouse splenocytes. DQ8 typed patients with long standing T1D (>10 years) were used as negative controls in the experiments (no T-cell responses to islet peptides)."}, "[2]": {"tested_on": "PBMCs isolated from DQ8 positive T1D patients", "assay": "Cytokine production in PBMCs from DQ8 positive recent-onset T1D patients", "assay_type": "cell-based, human", "conditions": "stimulated with InsB:9-23 for 48 h; all peptides at 50 μg/ml", "from_the_text": "as §1"}, "[3]": {"target": "T1, recombinant HLA-DQ8 protein (Homo sapiens, UniProt P01909+P01920)", "T1 construct": "contained the extracellular portion of the DQA1*0301 α chain fused to the coiled-coil region of the basic leucine zipper domain of Fos; contained the extracellular portion of the DQB1*0302 β chain fused to the coiled-coil region of the basic leucine zipper domain of JunB; Fos leucine zipper (coiled-coil region) (C); TEV protease site (internal); His6; JunB leucine zipper (coiled-coil region) (C); FLAG; host or cells: baculovirus system", "assay": "DELFIA immunoassay: inhibition of biotinylated InsB:9-23 binding to recombinant HLA-DQ8", "conditions": "for inhibition of InsB:9-23 binding to HLA-DQ8 (in words): D-peptides screened at 10 μM, recombinant HLA-DQ8", "from_the_text": "HLA-DQ8 protein was produced using the baculovirus system. Two constructs were designed for both the α and the β chains of HLA-DQ8. The β chain construct contained the extracellular portion of the DQB1*0302 β chain fused to the coiled-coil region of the basic leucine zipper domain of JunB, and the α chain construct contained the extracellular portion of the DQA1*0301 α chain fused to the coiled-coil region of the basic leucine zipper domain of Fos. […] A tobacco etch virus protease cutting site was introduced in each chain to allow removal of the dimerization motif. The JunB and Fos dimerization motifs were added in order to allow the α and β chains to dimerize and form the final HLA-DQ8 protein (FIG. 12A). These constructs were used to produce the HLA-DQ8 protein in a baculovirus system using the Life Technologies Baculovirus protein production custom services (Carlsbad, CA).\nD-peptides were produced by Fisher Scientific (Hanover Park, IL) in dry form and dissolved in PBS. All D-peptides were screened at a concentration of 10 μM for their ability to bind to the HLA-DQ8 pocket and block it from binding the InsB:9-23 peptide using a unique immunoassay (23). […] After washing 4 times, DELFIA Europium-labeled streptavidin (PerkinElmer) diluted in DELFIA assay buffer (PerkinElmer) was added for 30 minutes and shaken at slow speed at room temperature. Since the InsB:9-23 peptide was biotinylated the complex HLA-DQ8-InsB:9-23 peptide could be detected using the Europium-labeled streptavidin. After washing for 6 times, DELFIA Enhancement Solution was added for 1 hour or until the optimal signal was reached. Time-resolved fluorescence was measured using the BMG reader (BMG Labtech, Cary, NC). The experiment was performed in triplicate. As a negative control biotinylated InsB:9-23 peptide that was not pre-incubated with HLA-DQ8 was added to the nickel coated plates.\nImmunoassay was performed as described above."}, "[4]": {"tested_on": "T-cells of InsB:9-23-immunized SJL-DQ8 mice", "assay": "In vivo D-peptide treatment of InsB:9-23-immunized SJL-DQ8 humanized mice", "parameters": "species or system mouse", "conditions": "200 μg intraperitoneally on days 4, 7, 11 and 14; sacrifice day 17"}, "[5]": {"assay": "Metabolic stability in mouse hepatocytes", "assay_type": "in vitro ADME", "conditions": "mouse, hepatocytes; 1 μM; read-out: half-life after incubation with mouse hepatocytes (converted)", "method": "Cryopreserved mouse hepatocytes were thawed at 37° C. in water bath until the ice was almost melted (˜90 seconds). The suspensions from the each were immediately transferred to 50 mL centrifuge tubes containing pre-warmed thawing media (VitroGRO HT Medium, Thawing) at 37° C. The cell suspensions were centrifuged at 50 g for 5 minutes at 4° C. (SYS679). Supernatants were discarded and the pellets were re-suspended in pre-warmed 3 mL incubation media (from in vitroGRO HT Medium, Incubation) at 37° C. The percentages of viable cells in the suspension were determined by using the Trypan Blue stain method (20 μL of tryptan blue and 20 μL of cell suspension) DF=2. Cryo mouse hepatocyte (Bioreclamation, lot #CHV) viability was 72.62% (viable/dead=305/115), and the total cells were 4.57 million. 1.57 mL of incubation media was added to cell concentration to get 1 million cells/mL. 10 μl of 100 μM test compounds stock in ACN:H2O (v:v, 1:1) was added to 990 μl of hepatocyte suspension/incubation media in a 24-well plate. 10 μl of 20 μM Midazolam was added to 990 μl of hepatocyte suspension as a positive control in a 24-well plate. The cells were incubated in a 37° C. incubator (SYS431) for 4 hours. 50 μl of aliquots (n=2) were added to 800 ul of MeOH:water (v:v, 5:95) at 0, 15, 30, 60, 120, 180 and 240 minutes. For all samples, 20 μL of internal standard (200 ng/mL tolbutamide) was added to the solution in water. The samples were vortexed vigorously for 5 minutes and then loaded onto a pre-conditioned Oasis HLB 96-well SPE plate (10 mg, […]). The Oasis HLB 96-well SPE plate was conditioned with 1 mL of methanol and then rinsed with 1 mL of water before the samples were loaded. Once loaded onto the Oasis HLB 96-well SPE plate, residual solution was removed by vacuum. The samples were eluted into a clean 96-well plate with 800 μL of 0.1% formic acid in 70% acetonitrile. The samples were evaporated to dryness under nitrogen at ambient temperature using a TurboVap 96 Concentration Workstation (Caliper Life Sciences). […]"}, "[6]": {"assay": "Half-life and Intrinsic Clearance of RI-CT and RI-EXT (1 µM) after Incubation with Mouse Hepatocytes", "method": "Table printed on a drawing sheet, FIG. 20\nTitle: Half-life and Intrinsic Clearance of RI-CT and RI-EXT (1 µM) after Incubation with Mouse Hepatocytes\nFirst reader's note: The footnotes are printed inside the table frame as its last two rows; midazolam is a small-molecule positive control."}, "[7]": {"tested_on": "splenocytes isolated from SJL-DQ8 mice", "assay": "Ex vivo CFSE T-cell proliferation, splenocytes of InsB:9-23-immunized SJL-DQ8 mice", "assay_type": "cell-based, mouse", "conditions": "all peptides at 50 μg/ml; 5 days", "from_the_text": "ID NO: 23) and reverse primer [NT]"}, "[8]": {"target": "T2, HLA-DQ8 expressed on BSM cells (Homo sapiens, UniProt P01909+P01920, F237L)", "T2 construct": "BSM cells that express HLA-DQ8 on their surface; host or cells: BSM cells (B-cell line homozygous for HLA-DQ8)", "T2 sequence (P01920 33-261 A45G/Y58L/E77G/D89A/H199R/T217I, other chains not shown)": "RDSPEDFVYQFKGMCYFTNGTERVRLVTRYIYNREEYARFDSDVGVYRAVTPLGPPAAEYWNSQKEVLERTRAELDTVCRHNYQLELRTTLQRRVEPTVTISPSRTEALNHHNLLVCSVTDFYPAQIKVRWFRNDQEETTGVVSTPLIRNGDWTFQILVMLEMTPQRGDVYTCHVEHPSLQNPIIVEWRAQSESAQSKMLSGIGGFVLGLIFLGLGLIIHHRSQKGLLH", "assay": "Flow cytometric analysis of InsB:9-23 peptide binding to BSM cells", "assay_type": "cell-based", "conditions": "flow cytometry", "quoted_text": "N-terminal biotinylated peptide InsB:9-23 (or gliadin) were used to test for binding to BSM cells that express HLA-DQ8 on their surface. APC-streptavidin (BD Biosciences, Franklin Lakes, NJ) were used to detect the biotinylated peptides. […] After 24 hours incubation, cells were stained with PE-mouse anti-human HLA-DQ8 (BD Biosciences) and APC-streptavidin to detect the percent binding of the peptide to BSM cells with or without D-peptides. Percent binding was analyzed by flow cytometry."}, "[9]": {"tested_on": "5KC cells (TCR specific for the InsB:9-23-DQ8 complex) with BSM cells", "assay": "Mixed lymphocyte reaction (BSM cells loaded with InsB:9-23 and 5KC cells), IL-2 by Luminex", "assay_type": "cell-based, human, murine", "conditions": "peptide loaded on BSM cells", "method": "BSM cells homozygous for HLA-DQ8 (European Collection of Authenticated Cell Cultures) were cultured in RPMI growth medium (ATCC, Manassas, VA) supplied with 10% fetal bovine serum (FBS) (Sigma), 1% penicillin-streptomycin (Corning, NY), and 2 mM glutamine (Corning). Cells were grown at 37° C., 5% CO2, and passaged 1-2 times a week. 5KC cells (generously provided by Dr. Maki Nakayama, University of Colorado, Denver) were produced and cultured as described (25, 26).\nTo functionally test in vitro D-peptides ability to block T-cell activation, 10^6 BSM cells were incubated over night with 200 μg/ml InsB:9-23 (or with scrambled InsB:9-23 or gliadin as negative peptides); on the following day InsB:9-23 loaded BSM cells were washed twice with phosphate buffered saline (PBS) to remove excess peptide and RI-CT or RI-EXT peptides (or scrambled RI-CT/RI-EXT, as negative controls) were added to the cells. Following 2 hours of incubation at 37° C. 5KC cells were added to the mixture BSM-InsB:9-23-D-peptides (1:1 proportion) and incubated overnight. 5KC cells are transfected with human T-cell receptor that is activated only upon engagement with HLA-DQ8-InsB:9-23 complex. […] After overnight incubation of the 5KC cells with BSM cells loaded with InsB:9-23 and with different D-peptides IL-2 production was measured in the supernatants by Luminex assay. […]"}}, "note": "“Also recorded” adds a separate entry of the source.", "data": [{"compound": "CC(C)C[C@@H](NC(=O)[C@@H](Cc1ccc(O)cc1)NC(=O)[C@@H](CC(C)C)NC(=O)[C@H](NC(=O)[C@@H](CS)NC(=O)CNC(=O)[C@@H](CCC(=O)O)NC(=O)[C@@H](CCCNC(=N)N)NC(=O)CNC(=O)CNC(=O)[C@@H](Cc1ccccc1)NC(=O)[C@H](N)Cc1ccccc1)C(C)C)C(=O)N[C@H](C)C(=O)N[C@H](CCC(=O)O)C(=O)N[C@@H](C(=O)N[C@H](CC(C)C)C(=O)N[C@H](Cc1c[nH]cn1)C(=O)N[C@H](CO)C(=O)NCC(=O)O)C(C)C", "note": "[RI-EXT]", "values": [{"measurement": "T-cell proliferation induced by InsB:9-23 (CFSE assay), PBMCs of DQ8 positive T1D patients", "setting": "[1]", "result": "significantly suppressed; also recorded: significantly decreased"}, {"measurement": "IFN-γ production, PBMCs of DQ8 positive T1D patients", "setting": "[2]", "result": "significantly suppressed; also recorded: significantly decreased"}, {"measurement": "IL-2 production, PBMCs of DQ8 positive T1D patients", "setting": "[2]", "result": "significantly suppressed; also recorded: significantly decreased"}, {"measurement": "inhibition of InsB:9-23 binding to HLA-DQ8 (in words)", "setting": "[3]", "result": "significant inhibition"}, {"measurement": "inhibition of InsB:9-23 binding to HLA-DQ8 (in words)", "setting": "[3]; listed as #10", "result": "best extended sequence"}, {"measurement": "dose dependence of the inhibition of InsB:9-23 binding to HLADQ8", "setting": "[3]; serially diluted to 0.5 μM, FIG. 3D", "result": "dose-dependent"}, {"measurement": "activation of T-cells by InsB:9-23 in immunized mice (IL-2, IFN-γ of splenocytes)", "setting": "[4]", "result": "significantly blocked"}, {"measurement": "half-life", "setting": "[5]", "result": "~1", "unit": "h"}, {"measurement": "CLint (mL/min/million cells)", "setting": "[6]", "result": 0.012, "unit": "mL/min/million cells"}, {"measurement": "t1/2", "setting": "[6]", "result": 0.963, "unit": "h"}, {"measurement": "T-cell proliferation induced by InsB:9-23 (CFSE assay), SJL-DQ8 splenocytes", "setting": "[7]", "result": "significantly suppressed; also recorded: significantly decreased"}, {"measurement": "inhibition of the binding of InsB:9-23 to DQ8 expressed on BSM cells (in words)", "setting": "[8]; 10 μM peptide", "result": "inhibits the binding"}]}, {"compound": "SHLVEALYLVCGERG [InsB:9-23, diabetogenic insulin peptide, reference compound]", "values": [{"measurement": "binding to the recombinant HLA-DQ8 protein", "setting": "[3]; biotinylated peptide, compared to scrambled InsB:9-23, FIG. 3B", "result": "significant binding"}, {"measurement": "induction of IL-2 secretion in 5KC cells / activation of 5KC cells", "setting": "[9]", "result": "dose-dependent manner"}, {"measurement": "binding of InsB:9-23 to HLA-DQ8 positive BSM cells", "setting": "[8]; incubated without D-peptides", "result": 84.8, "unit": "%"}]}]}
